Holding throughout (type): physicochemical
The nature of series [1]: Water solubility of the drug.
Series [2] can be described thus: Dissolution in phosphate-buffered solution pH 7.2 simulating intestinal environment (Example 7). The note with it: 50 ml phosphate-buffered solution pH 7.2, Drug 2. Here is the method: For a comparative dissolution study, Control G, consisting of 100 mg of crystalline Drug 2 was prepared. The dissolution of drug was studied by placing one each of the bi-layer tablet and Control G preparation containing an equal amount of Drug 2 in 50 ml of the phosphate-buffered solution of Example 3 (pH 7.2, osmotic pressure 5.3 atm) to simulate an intestinal environment of use.

Series [3] in a line: Dissolution in MFD solution (Example 6). The note with it: 50 ml MFD solution, Drug 1. The source says:
1. The data for the tri-layer tablet is the average of the values for the two tablets tested.

Series [4] is described as follows: Dissolution in MFD solution (Example 8, sertraline). The note with it: 40 ml MFD solution. As for the experimental part: For a comparative dissolution study, Control H, consisting of 111.4 mg of the crystalline drug, was used. The dissolution of drug was studied by placing the bilayer tablet and Control H each in 40 ml of MFD solution.
A short description of series [5]: Dissolution in phosphate buffered saline (PBS) solution (Example 3). To be noted: 35 ml PBS solution, Drug 2. Here is the method: For a comparative dissolution study, Control E, consisting of 35 mg of crystalline Drug 2 was prepared. The dissolution of drug was studied by placing two of the trilayer tablets and Control E each in 35 ml of a phosphate buffered saline (PBS) solution composed of 6 mm KH2PO4, 5 mM NaOH, 60 mM KCl and 30 mM NaCl. The data for the trilayer tablet is the average of the values for the two tablets tested.

≈ marks a conversion by molar mass, not a printed value.

In series [1], `CON(C)C(=O)C(O)[C@H](Cc1ccccc1)NC(=O)c1cc2cc(Cl)ccc2[nH]1` (stereo in doubt) [Drug 1, [R-(R*,S*)]-5-chloro-N-[2-hydroxy-3-[methoxymethylamino)-3-1-(phenylmethyl)propyl]propyl]-1H-indole-2-carboxamide] registered a water solubility of 1 µg/mL (≈ 2.4 µM).

In the case of `O=C(N[C@@H](Cc1ccccc1)[C@@H](O)C(=O)N1C[C@@H](O)[C@@H](O)C1)c1cc2cc(Cl)ccc2[nH]1` [Control G], the “MDC (maximum drug concentration)” value in series [2] was 77 µg/mL. In addition, the “[Drug] drug concentration” value in series [2] (time 0 hr) was 0 µg/mL; in series [2] (time 1 hr) it was 59 µg/mL; in series [2] (time 2 hr) it was 72 µg/mL; in series [2] (time 4 hr), 72 µg/mL; in series [2] (time 8 hr), 77 µg/mL; in series [2] (time 12 hr), 71 µg/mL. Moreover, the entries for the “[Drug] drug concentration” value in series [2] (time 18 hr) and in series [2] (time 24 hr) were 71 µg/mL and 75 µg/mL, respectively.

For the compound `CON(C)C(=O)C(O)[C@H](Cc1ccccc1)NC(=O)c1cc2cc(Cl)ccc2[nH]1` (stereo in doubt) [Control F, [R-(R*,S*)]-5-chloro-N-[2-hydroxy-3-[methoxymethylamino)-3-1-(phenylmethyl)propyl]propyl]-1H-indole-2-carboxamide], the “MDC (maximum drug concentration)” value in series [3] came to 16 µg/mL. In addition, the “[Drug] drug concentration” value in series [3] (time 0 hr) was found to be 0 µg/mL; in series [3] (time 2 hr) it was 13 µg/mL; in series [3] (time 4 hr) it was 16 µg/mL; in series [3] (time 8 hr) it was 13 µg/mL; in series [3] (time 12 hr), 15 µg/mL; in series [3] (time 20 hr), 12 µg/mL. In addition, in series [3] (time 24 hr), the “[Drug] drug concentration” value was 11 µg/mL.

As for `CN[C@H]1CC[C@@H](c2ccc(Cl)c(Cl)c2)c2ccccc21` [Control H, sertraline], the “MDC (maximum drug concentration)” value in series [4] is 401 µg/mL. In series [4] (time 0 hr), this compound showed an AUC of 0 µg·min/mL. Besides, the “[Drug] drug concentration” value in series [4] (time 0 hr) stood at 0 µg/mL; in series [4] (time 0.2 hr), 278 µg/mL; in series [4] (time 0.3 hr), 401 µg/mL; in series [4] (time 0.7 hr) it was 341 µg/mL; in series [4] (time 1.5 hr), 217 µg/mL; in series [4] (time 2 hr), 188 µg/mL. Besides, the “[Drug] drug concentration” value in series [4] (time 3 hr) was 168 µg/mL; in series [4] (time 4 hr), 152 µg/mL; in series [4] (time 6 hr) it was 160 µg/mL; in series [4] (time 10 hr), 137 µg/mL; in series [4] (time 14 hr), 135 µg/mL; in series [4] (time 24 hr) it was 191 µg/mL.

For the compound `O=C(N[C@@H](Cc1ccccc1)[C@@H](O)C(=O)N1C[C@@H](O)[C@@H](O)C1)c1cc2cc(Cl)ccc2[nH]1` [Control E], in series [5], the “MDC (maximum drug concentration)” value was determined as 171 µg/mL. For the same compound, the “[Drug] drug concentration” value in series [5] (time 0.3 hrs) came out at 99 µg/mL; in series [5] (time 1.5 hrs), 148 µg/mL; in series [5] (time 2.0 hrs), 165 µg/mL; in series [5] (time 3.0 hrs) it was 137 µg/mL; in series [5] (time 4.0 hrs), 142 µg/mL; in series [5] (time 12.0 hrs), 157 µg/mL. The “[Drug] drug concentration” value in series [5] (time 20.0 hrs) amounted to 171 µg/mL.

These data come from patent publication US7550158B2, “Controlled release by extrusion of solid amorphous dispersions of drugs” (Bend Research, Inc., priority 1999, dated 2009).
